The term IC50 denotes the concentration at which inhibition is half-maximal.

One assay deals with human biphenotypic B myelomonocytic leukemia MV4-11. In words: Antiproliferative activity, MTT assay, 72 h. It is filed as cell-based. The conditions noted are these: Homo sapiens; MV4-11, 72 h, MTT; read-out: IC50. The method, then: (§1) The tested compounds were dissolved in DMSO (dimethyl sulfoxide) to a concentration of 10 mg/mL and then were diluted in the culture medium to reach the final concentrations. The cells were plated in 384-well plates at a density of 1 × 10^3 or 2 × 10^3 (MCF-10A) cells per well (Greiner Bio One, Kremsmünster, Austria) and in 96-well plates (MV4-11 cell; Sarstedt, Nümbrecht, Germany) at a density of 5 × 10^3 cells per well. After 24 h of incubation, the tested compounds were added at concentrations in the range of 100–0.03 µg/mL and, after the next 72 h of exposure to tested agents, the cytotoxic effect of all agents was examined using the MTT (MV4-11) or SRB assay, described previously. The values of IC50 (inhibitory concentration 50%) were calculated separately for each experiment (repeated 3–5 times) using the Prolab-3 system which is based on Cheburator 0.4 software. Doxorubicin was applied as a reference drug. The IC50 values in µg/mL were calculated to µM.
This assay was used against MV4-11 leukemia cells and was performed after 72 h of exposure of the tested agents to the cells. For each well, 20 µL of the MTT [3-(4,5-dimethylthiazol-2-yl)-2,5-diphenyl tetrazolium bromide] solution (5 mg/mL, Merck, Darmstadt, Germany) was added. After the incubation time (4 h at 37 °C), 80 µL of the lysing buffer was added to each well (mixture of 225 mL of DMF (dimethylformamide) Avantor, Poland; 67.5 g of SDS, Merck, Darmstadt, Germany; and 275 mL of distilled water). After the next 24 h, the absorbance of the samples was measured at a 570 nm wavelength on a Synergy H4 photometer (BioTek Instruments, Winooski, VT, USA). The absorbance of wells without the cells was the background.
(Formazan colour is commonly taken as a measure of viable cells.)
Take `C=C(C)[C@@H]1CC[C@]2(COC(=O)CC)CC[C@]3(C)C(CCC4[C@@]5(C)CC[C@H](OC(=O)CC(C)(C)C(=O)O)C(C)(C)C5CC[C@]43C)C12` (stereo partly drawn) [Compound 5d]: the IC50 stood at 2.5 ± 0.48 µM.
The same measure, in the same setting: in the case of `C#CCCC(=O)OC[C@]12CC[C@@H](C(=C)C)C1C1CCC3[C@@]4(C)CC[C@H](OC(=O)CCC(=O)O)C(C)(C)C4CC[C@@]3(C)[C@]1(C)CC2` (stereo partly drawn) [Compound 6b] it was 3.53 ± 0.64 µM.

Staying with this assay, now noted: IC50 MCF-10A / IC50 MV4-11.
As to `C=C(C)[C@@H]1CC[C@]2(COC(=O)CC)CC[C@]3(C)C(CCC4[C@@]5(C)CC[C@H](OC(=O)CC(C)(C)C(=O)O)C(C)(C)C5CC[C@]43C)C12` (stereo partly drawn) [Compound 5d], the SI was 13.63.
Turning to `C#CCCC(=O)OC[C@]12CC[C@@H](C(=C)C)C1C1CCC3[C@@]4(C)CC[C@H](OC(=O)CCC(=O)O)C(C)(C)C4CC[C@@]3(C)[C@]1(C)CC2` (stereo partly drawn) [Compound 6b], the SI was 8.68.

A further assay has as its system human normal epithelial cells from the mammary gland (MCF-10A). Nature of the assay: Cytotoxicity on non-tumorigenic cells, SRB assay, 72 h. It is filed as cell-based. The conditions noted are these: Homo sapiens, MCF-10A normal cells, SRB, read-out: IC50. The procedure:
as §1
(§2) The cytotoxicity assay was performed after the cultured cells were exposed to the tested agents for 72 h using the authomatic Washer dyspenser EL406, BioTek. At the first step, the washer dispenser collected 40 µL of cultured medium from each wells, and then the cells were fixed by gently layering 20 µL per well of cold 25% trichloroacetic acid to each well. The incubation time was 40 min and then the plates were washed with tap water. The cells were stained with 20 µL per well of 0.1% sulforhodamine B (SRB, Merck, Darmstadt, Germany) for 30 min. Unbound sulforhodamine B was removed by washing it with 1% acetic acid. The protein-bound dye was extracted in 30 min using 70 µL per well of 10 mM unbuffered Tris base (Merck, Darmstadt, Germany). The absorbance (at 540 nm) was measured on a Synergy H4 photometer (BioTek Instruments, Winooski, VT, USA). The absorbance of the wells without the cells was the background.
On the technique in general: Sulforhodamine B stains cellular protein and so reports cell mass.
With `C=C(C)[C@@H]1CC[C@]2(COC(=O)CC)CC[C@]3(C)C(CCC4[C@@]5(C)CC[C@H](OC(=O)CC(C)(C)C(=O)O)C(C)(C)C5CC[C@]43C)C12` (stereo partly drawn) [Compound 5d], the IC50 amounted to 34.1 ± 4.94 µM.
On the same count and under the same terms, the result for `C#CCCC(=O)OC[C@]12CC[C@@H](C(=C)C)C1C1CCC3[C@@]4(C)CC[C@H](OC(=O)CCC(=O)O)C(C)(C)C4CC[C@@]3(C)[C@]1(C)CC2` (stereo partly drawn) [Compound 6b] reads 30.7 ± 3.69 µM.

For another assay, the system named is human colon cancer HCT116 cells. In words: Antiproliferative activity, SRB assay, 72 h. It is filed as cell-based. The conditions noted are these: Homo sapiens, HCT-116; HCT116, 72 h, SRB; read-out: IC50. The procedure: as §1, §2
Consider `C=C(C)[C@@H]1CC[C@]2(COC(=O)CC)CC[C@]3(C)C(CCC4[C@@]5(C)CC[C@H](OC(=O)CC(C)(C)C(=O)O)C(C)(C)C5CC[C@]43C)C12` (stereo partly drawn) [Compound 5d], for which the IC50 turned out to be 12.3 ± 4.15 µM.
Same read-out and setting: the result for `C#CCCC(=O)OC[C@]12CC[C@@H](C(=C)C)C1C1CCC3[C@@]4(C)CC[C@H](OC(=O)CCC(=O)O)C(C)(C)C4CC[C@@]3(C)[C@]1(C)CC2` (stereo partly drawn) [Compound 6b] reads 9.95 ± 0.64 µM.

Staying with this assay, now noted: IC50 MCF-10A / IC50 HCT116.
In the case of `C=C(C)[C@@H]1CC[C@]2(COC(=O)CC)CC[C@]3(C)C(CCC4[C@@]5(C)CC[C@H](OC(=O)CC(C)(C)C(=O)O)C(C)(C)C5CC[C@]43C)C12` (stereo partly drawn) [Compound 5d], the SI was 2.78.
Turning to `C#CCCC(=O)OC[C@]12CC[C@@H](C(=C)C)C1C1CCC3[C@@]4(C)CC[C@H](OC(=O)CCC(=O)O)C(C)(C)C4CC[C@@]3(C)[C@]1(C)CC2` (stereo partly drawn) [Compound 6b], the SI was determined as 3.08.

The subject of another assay is human melanoma Hs294T cells. Nature of the assay: Antiproliferative activity, SRB assay, 72 h. It is filed as cell-based. To be noted: Homo sapiens, Hs 294T; Hs249T (so in the source), 72 h, SRB; read-out: IC50. The method, then:
as §1, §2
Take `C=C(C)[C@@H]1CC[C@]2(COC(=O)CC)CC[C@]3(C)C(CCC4[C@@]5(C)CC[C@H](OC(=O)CC(C)(C)C(=O)O)C(C)(C)C5CC[C@]43C)C12` (stereo partly drawn) [Compound 5d]: the IC50 was 59.7 ± 38.6 µM.
Same read-out and setting: the result for `C#CCCC(=O)OC[C@]12CC[C@@H](C(=C)C)C1C1CCC3[C@@]4(C)CC[C@H](OC(=O)CCC(=O)O)C(C)(C)C4CC[C@@]3(C)[C@]1(C)CC2` (stereo partly drawn) [Compound 6b] reads 17.5 ± 6.26 µM.

Staying with this assay, now noted: IC50 MCF-10A / IC50 Hs249T (so in the source).
As for `C=C(C)[C@@H]1CC[C@]2(COC(=O)CC)CC[C@]3(C)C(CCC4[C@@]5(C)CC[C@H](OC(=O)CC(C)(C)C(=O)O)C(C)(C)C5CC[C@]43C)C12` (stereo partly drawn) [Compound 5d], the SI worked out at 0.57.
As to `C#CCCC(=O)OC[C@]12CC[C@@H](C(=C)C)C1C1CCC3[C@@]4(C)CC[C@H](OC(=O)CCC(=O)O)C(C)(C)C4CC[C@@]3(C)[C@]1(C)CC2` (stereo partly drawn) [Compound 6b], the SI came out at 1.75.

The subject of a further assay is human prostate adenocarcinoma PC-3. In words: Antiproliferative activity, SRB assay, 72 h. The class given is cell-based. To be noted: Homo sapiens; PC-3, 72 h, SRB; read-out: IC50. The method, then:
as §1, §2
In the case of `C=C(C)[C@@H]1CC[C@]2(COC(=O)CC)CC[C@]3(C)C(CCC4[C@@]5(C)CC[C@H](OC(=O)CC(C)(C)C(=O)O)C(C)(C)C5CC[C@]43C)C12` (stereo partly drawn) [Compound 5d], the IC50 was found to be 16.6 ± 6.54 µM.
Still for that read-out and setting: the result for `C#CCCC(=O)OC[C@]12CC[C@@H](C(=C)C)C1C1CCC3[C@@]4(C)CC[C@H](OC(=O)CCC(=O)O)C(C)(C)C4CC[C@@]3(C)[C@]1(C)CC2` (stereo partly drawn) [Compound 6b] reads 13.2 ± 2.57 µM.

Staying with this assay, now noted: IC50 MCF-10A / IC50 PC-3.
As for `C=C(C)[C@@H]1CC[C@]2(COC(=O)CC)CC[C@]3(C)C(CCC4[C@@]5(C)CC[C@H](OC(=O)CC(C)(C)C(=O)O)C(C)(C)C5CC[C@]43C)C12` (stereo partly drawn) [Compound 5d], the SI was found to be 2.06.
As for `C#CCCC(=O)OC[C@]12CC[C@@H](C(=C)C)C1C1CCC3[C@@]4(C)CC[C@H](OC(=O)CCC(=O)O)C(C)(C)C4CC[C@@]3(C)[C@]1(C)CC2` (stereo partly drawn) [Compound 6b], the SI stood at 2.33.

Another assay relates to human pancreas cancer MiaPaca-2 cells. Nature of the assay: Antiproliferative activity, SRB assay, 72 h. It is filed as cell-based. The conditions noted are these: Homo sapiens, MIA PaCa-2; MiaPaca-1 (so in the source), 72 h, SRB; read-out: IC50. The method, then:
as §1, §2
Take `C=C(C)[C@@H]1CC[C@]2(COC(=O)CC)CC[C@]3(C)C(CCC4[C@@]5(C)CC[C@H](OC(=O)CC(C)(C)C(=O)O)C(C)(C)C5CC[C@]43C)C12` (stereo partly drawn) [Compound 5d]: the IC50 was determined as 29.2 ± 1.59 µM.
On the same count and under the same terms, the result for `C#CCCC(=O)OC[C@]12CC[C@@H](C(=C)C)C1C1CCC3[C@@]4(C)CC[C@H](OC(=O)CCC(=O)O)C(C)(C)C4CC[C@@]3(C)[C@]1(C)CC2` (stereo partly drawn) [Compound 6b] reads 27.4 ± 2.57 µM.

The assay is the same for the next values; noted with them: IC50 MCF-10A / IC50 MiaPaca-1 (so in the source).
In the case of `C=C(C)[C@@H]1CC[C@]2(COC(=O)CC)CC[C@]3(C)C(CCC4[C@@]5(C)CC[C@H](OC(=O)CC(C)(C)C(=O)O)C(C)(C)C5CC[C@]43C)C12` (stereo partly drawn) [Compound 5d], the SI is given as 1.17.
Still for that read-out and setting: in the case of `C#CCCC(=O)OC[C@]12CC[C@@H](C(=C)C)C1C1CCC3[C@@]4(C)CC[C@H](OC(=O)CCC(=O)O)C(C)(C)C4CC[C@@]3(C)[C@]1(C)CC2` (stereo partly drawn) [Compound 6b] it was 1.12.

A further assay deals with human lung carcinoma A549. In words: Antiproliferative activity, SRB assay, 72 h. The class given is cell-based. The conditions noted are these: Homo sapiens; A549, 72 h, SRB; read-out: IC50. The procedure:
as §1, §2
As for `C=C(C)[C@@H]1CC[C@]2(COC(=O)CC)CC[C@]3(C)C(CCC4[C@@]5(C)CC[C@H](OC(=O)CC(C)(C)C(=O)O)C(C)(C)C5CC[C@]43C)C12` (stereo partly drawn) [Compound 5d], the IC50 is 4.62 ± 1.59 µM.
Consider `C#CCCC(=O)OC[C@]12CC[C@@H](C(=C)C)C1C1CCC3[C@@]4(C)CC[C@H](OC(=O)CCC(=O)O)C(C)(C)C4CC[C@@]3(C)[C@]1(C)CC2` (stereo partly drawn) [Compound 6b], for which the IC50 stood at 3.21 ± 0.64 µM.

The assay is the same for the next values; noted with them: IC50 MCF-10A / IC50 A549.
For `C=C(C)[C@@H]1CC[C@]2(COC(=O)CC)CC[C@]3(C)C(CCC4[C@@]5(C)CC[C@H](OC(=O)CC(C)(C)C(=O)O)C(C)(C)C5CC[C@]43C)C12` (stereo partly drawn) [Compound 5d], the SI amounted to 7.38.
On to `C#CCCC(=O)OC[C@]12CC[C@@H](C(=C)C)C1C1CCC3[C@@]4(C)CC[C@H](OC(=O)CCC(=O)O)C(C)(C)C4CC[C@@]3(C)[C@]1(C)CC2` (stereo partly drawn) [Compound 6b], for which the SI turned out to be 9.55.

The next assay deals with human breast cancer MCF-7. In words: Antiproliferative activity, SRB assay, 72 h. It is filed as cell-based. To be noted: Homo sapiens, MCF7; MCF-7, 72 h, SRB; read-out: IC50. The procedure:
as §1, §2
Consider `C=C(C)[C@@H]1CC[C@]2(COC(=O)CC)CC[C@]3(C)C(CCC4[C@@]5(C)CC[C@H](OC(=O)CC(C)(C)C(=O)O)C(C)(C)C5CC[C@]43C)C12` (stereo partly drawn) [Compound 5d], for which the IC50 amounted to 21.1 ± 9.89 µM.
Still for that read-out and setting: in the case of `C#CCCC(=O)OC[C@]12CC[C@@H](C(=C)C)C1C1CCC3[C@@]4(C)CC[C@H](OC(=O)CCC(=O)O)C(C)(C)C4CC[C@@]3(C)[C@]1(C)CC2` (stereo partly drawn) [Compound 6b] it was 11.4 ± 4.17 µM.

Still in this assay, the particulars now being: IC50 MCF-10A / IC50 MCF-7.
On to `C=C(C)[C@@H]1CC[C@]2(COC(=O)CC)CC[C@]3(C)C(CCC4[C@@]5(C)CC[C@H](OC(=O)CC(C)(C)C(=O)O)C(C)(C)C5CC[C@]43C)C12` (stereo partly drawn) [Compound 5d], for which the SI is reported as 1.62.
On the same count and under the same terms, in the case of `C#CCCC(=O)OC[C@]12CC[C@@H](C(=C)C)C1C1CCC3[C@@]4(C)CC[C@H](OC(=O)CCC(=O)O)C(C)(C)C4CC[C@@]3(C)[C@]1(C)CC2` (stereo partly drawn) [Compound 6b] it was 2.69.

The values are drawn from paper PMC11821258 (Molecules, 2025).
